Reference: paper PMC13266999, “Designing Antibiotics with Inherent Resistance to Efflux as a Strategy to Revive Discovery against Multidrug-Resistant Pathogens” (Journal of Medicinal Chemistry, 2026)
Read-outs that look alike come from different tables or passages of the source.

Columns and labels:
E. faecalis = experiment: MIC (microbroth dilution); format: cell-based, Enterococcus faecalis; conditions: for MIC: Enterococcus faecalis
Method in brief: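 Broth microdilution MICs, defined as lowest compound level without visible growth (OD600 read), on bacteria grown overnight to stationary phase then diluted. Twofold compound dilutions; some wells also received PMBN, final 30 μg/mL, to permeabilize the outer membrane.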

S. haemolyticus = experiment: MIC (microbroth dilution); format: cell-based, Staphylococcus haemolyticus; conditions: Staphylococcus haemolyticus, ATCC29970; ATCC 29970; read-out: MIC
Experimental: (§1) All bacteria were maintained on tryptic soy agar (TSA), except Streptococcus spp., which were maintained on Columbia agar plates containing 5% horse blood. All bacterial assays were carried out in tryptic soy broth (TSB), except for Streptococcus spp. which were grown in cation-adjusted Mueller Hinton broth containing 2.5% lysed horse blood. Bacteria were grown to stationary phase in liquid culture overnight, with shaking at 200 rpm, before being back diluted to the relevant starting concentration for each assay below. MICs were measured by the microbroth dilution method. […] Absorbance at OD600 was read on a CLARIOstar spectrophotometer (BMG Labtech) and the MIC was defined as the minimum concentration of compound where no visible growth was detected. The compounds were prepared as a DMSO stock and equivalent concentrations of DMSO had no effect on bacterial growth. MICs were also performed in the presence of the outer membrane permeator, polymyxin b nonapeptide (PMBN) following the same MIC method but with the following variation. The 2-fold dilution series of compound was prepared as above, then 50 μL of PMBN at a final concentration of 30 μg/mL was added to relevant wells, while 50 μL/well of blank media was added to the remaining wells. Bacteria were then added at 50 μL/well for a starting concentration as above. Thirty μg/mL of PMBN had no effect on bacterial growth. The MICs were read and defined as above. All animal procedures were performed by the contract research organization Pharmacology Discovery Services Taiwan in accordance with the Guide for the Care and Use of Laboratory Animals. The procedures were approved by the Institutional Ethics Committee of Pharmacology Discovery Services Taiwan, Ltd. (approval no. AB127662), in compliance with animal welfare legislation in Taiwan.

[1] = system: Staphylococcus epidermidis, S. hemolyticus and S. saprophyticus; experiment: MIC, extended Gram-positive panel (grouped species); format: cell-based, Staphylococcus spp.
Experimental: as §1, with “Thirty μg/mL of PMBN had no effect on bacterial growth.” left out, “All animal procedures were performed by the contract research organization Pharmacology Discovery Services Taiwan in accordance with the Guide for the Care and Use of Laboratory Animals. The procedures were approved by the Institutional Ethics Committee of Pharmacology Discovery Services Taiwan, Ltd. (approval no. AB127662), in compliance with animal welfare legislation in Taiwan.” left out

Neisseria gonorrhoeae = experiment: MIC; format: cell-based
[2] = male, ICR, mouse, in vivo, po
[3] = system: major human CYP isoforms other than CYP3A (midazolam substrate); experiment: Cytochrome P450 inhibition panel; conditions: human recombinant CYP enzymes in microsomal preparations
Experimental: Cytochrome P450 inhibition was assessed in vitro using human recombinant enzymes in microsomal preparations. […] Enzyme activity was quantified by monitoring formation of substrate-specific metabolites, and percent inhibition was calculated relative to vehicle control.
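For Response (death/test) in this document: male ICR mice given oral doses under a stepwise escalation scheme to find the highest tolerated dose.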

Cc1cc(C)nc(N[C@@H]2CCN(c3c(F)cc4c(=O)c(C(=O)O)cn5c4c3OC[C@@H]5C)C2)n1 [Compound 50, (S)-10-((R)-3-((4,6-Dimethylpyrimidin-2-yl)amino)pyrrolidin-1-yl)-9-fluoro-3-methyl-7-oxo-2,3-dihydro-7H-[1,4]oxazino[2,3,4-ij]quinoline-6-carboxylic acid]
0.25 µg/mL: MIC (E. faecalis; ATCC29212, ATCC 29212, read-out: MIC) | MIC (E. faecalis; ATCC51575, VanB (ATCC 51575), read-out: MIC)
0.5 µg/mL: MIC (E. faecalis; CCUG47775, VanA (CCUG 47775), read-out: MIC)
0.125 µg/mL: MIC (E. faecalis; ATCC51299) | MIC (E. faecalis; ATCC700802)
0.125 to 0.5 µg/mL: MIC range (E. faecalis; clinical isolates, Table S11B)
0.03 µg/mL: MIC (S. haemolyticus)
0.03125 to 0.06 µg/mL: MIC range [1]

C[C@H]1COc2c(N3CC[C@@H](Nc4ncccn4)C3)c(F)cc3c(=O)c(C(=O)O)cn1c23 [Compound 46, (S)-9-Fluoro-3-methyl-7-oxo-10-((R)-3-(pyrimidin-2-ylamino)pyrrolidin-1-yl)-2,3-dihydro-7H-[1,4]oxazino[2,3,4-ij]quinoline-6-carboxylic acid]
1 µg/mL: MIC (Neisseria gonorrhoeae; CCUG57600, CCUG 57600) | MIC (Neisseria gonorrhoeae; FDA-CDC AR-BANK#0168) | MIC (Neisseria gonorrhoeae; FDA-CDC AR-BANK#0171) | MIC (Neisseria gonorrhoeae; FDA-CDC AR-BANK#0172) | MIC (Neisseria gonorrhoeae; FDA-CDC AR-BANK#0186) | MIC (Neisseria gonorrhoeae; FDA-CDC AR-BANK#0188) | MIC (Neisseria gonorrhoeae; FDA-CDC AR-BANK#0213)
≤ 13%: inhibition at 10 µM [3]
4 µg/mL: MIC (Neisseria gonorrhoeae; 2007NG046)
≤ 0.03 µg/mL: MIC (Neisseria gonorrhoeae; ATCC49226, ATCC 49226) | MIC (Neisseria gonorrhoeae; ATCC700825, ATCC 700825) | MIC (Neisseria gonorrhoeae; BAA1833, BAA-1833) | MIC (Neisseria gonorrhoeae; BAA1838, BAA-1838) | MIC (Neisseria gonorrhoeae; CCUG57595, CCUG 57595) | MIC (Neisseria gonorrhoeae; CCUG57601, CCUG 57601) | MIC (Neisseria gonorrhoeae; FDA-CDC AR-BANK#0167) | MIC (Neisseria gonorrhoeae; FDA-CDC AR-BANK#0175) | MIC (Neisseria gonorrhoeae; FDA-CDC AR-BANK#0177) | MIC (Neisseria gonorrhoeae; FDA-CDC AR-BANK#0179) | MIC (Neisseria gonorrhoeae; FDA-CDC AR-BANK#0181) | MIC (Neisseria gonorrhoeae; FDA-CDC AR-BANK#0193) | MIC (Neisseria gonorrhoeae; FDA-CDC AR-BANK#0194) | MIC (Neisseria gonorrhoeae; FDA-CDC AR-BANK#0199) | MIC (Neisseria gonorrhoeae; FDA-CDC AR-BANK#0202)
2 µg/mL: MIC (Neisseria gonorrhoeae; 2008NG057) | MIC (Neisseria gonorrhoeae; 2008NG097) | MIC (Neisseria gonorrhoeae; 2009NG514) | MIC (Neisseria gonorrhoeae; 2010NG122) | MIC (Neisseria gonorrhoeae; CCUG57597, CCUG 57597) | MIC (Neisseria gonorrhoeae; CCUG57598, CCUG 57598) | MIC (Neisseria gonorrhoeae; FDA-CDC AR-BANK#0165) | MIC (Neisseria gonorrhoeae; FDA-CDC AR-BANK#0166) | MIC (Neisseria gonorrhoeae; FDA-CDC AR-BANK#0169) | MIC (Neisseria gonorrhoeae; FDA-CDC AR-BANK#0170) | MIC (Neisseria gonorrhoeae; FDA-CDC AR-BANK#0173) | MIC (Neisseria gonorrhoeae; FDA-CDC AR-BANK#0174) | MIC (Neisseria gonorrhoeae; FDA-CDC AR-BANK#0176) | MIC (Neisseria gonorrhoeae; FDA-CDC AR-BANK#0178) | MIC (Neisseria gonorrhoeae; FDA-CDC AR-BANK#0180) | MIC (Neisseria gonorrhoeae; FDA-CDC AR-BANK#0182) | MIC (Neisseria gonorrhoeae; FDA-CDC AR-BANK#0183) | MIC (Neisseria gonorrhoeae; FDA-CDC AR-BANK#0184) | MIC (Neisseria gonorrhoeae; FDA-CDC AR-BANK#0185) | MIC (Neisseria gonorrhoeae; FDA-CDC AR-BANK#0187) | MIC (Neisseria gonorrhoeae; FDA-CDC AR-BANK#0189) | MIC (Neisseria gonorrhoeae; FDA-CDC AR-BANK#0190) | MIC (Neisseria gonorrhoeae; FDA-CDC AR-BANK#0191) | MIC (Neisseria gonorrhoeae; FDA-CDC AR-BANK#0192) | MIC (Neisseria gonorrhoeae; FDA-CDC AR-BANK#0195) | MIC (Neisseria gonorrhoeae; FDA-CDC AR-BANK#0196) | MIC (Neisseria gonorrhoeae; FDA-CDC AR-BANK#0197) | MIC (Neisseria gonorrhoeae; FDA-CDC AR-BANK#0198) | MIC (Neisseria gonorrhoeae; FDA-CDC AR-BANK#0200) | MIC (Neisseria gonorrhoeae; FDA-CDC AR-BANK#0201) | MIC (Neisseria gonorrhoeae; FDA-CDC AR-BANK#0203) | MIC (Neisseria gonorrhoeae; FDA-CDC AR-BANK#0204) | MIC (Neisseria gonorrhoeae; FDA-CDC AR-BANK#0205) | MIC (Neisseria gonorrhoeae; FDA-CDC AR-BANK#0206) | MIC (Neisseria gonorrhoeae; FDA-CDC AR-BANK#0207) | MIC (Neisseria gonorrhoeae; FDA-CDC AR-BANK#0208) | MIC (Neisseria gonorrhoeae; FDA-CDC AR-BANK#0209) | MIC (Neisseria gonorrhoeae; FDA-CDC AR-BANK#0210) | MIC (Neisseria gonorrhoeae; FDA-CDC AR-BANK#0211) | MIC (Neisseria gonorrhoeae; FDA-CDC AR-BANK#0212) | MIC (Neisseria gonorrhoeae; FDA-CDC AR-BANK#0214) | MIC (Neisseria gonorrhoeae; NCTC13818, NCTC 13818) | MIC (Neisseria gonorrhoeae; NCTC13819, NCTC 13819) | MIC (Neisseria gonorrhoeae; NCTC13820, NCTC 13820) | MIC (Neisseria gonorrhoeae; NCTC13821, NCTC 13821) | MIC (Neisseria gonorrhoeae; NCTC13822, NCTC 13822) | MIC (Neisseria gonorrhoeae; TCDC-NG08107) | MIC90 (Neisseria gonorrhoeae; panel of 75 clinical isolates)
0.5 µg/mL: MIC (Neisseria gonorrhoeae; CCUG57599, CCUG 57599) | MIC (Neisseria gonorrhoeae; NCTC13817, NCTC 13817)
0/3: Response (death/test) ([2]; 100 mg/kg) | Response (death/test) ([2]; 100 mg/kg, 24 h) | Response (death/test) ([2]; 100 mg/kg, 48 h) | Response (death/test) ([2]; 100 mg/kg, 72 h) | Response (death/test) ([2]; 200 mg/kg) | Response (death/test) ([2]; 400 mg/kg)
0.03 to 0.5 µg/mL: MIC (Neisseria gonorrhoeae; several isolates of the panel)
0.125 µg/mL: MIC (Neisseria gonorrhoeae; CCUG57596, CCUG 57596)
≤ 0.125 µg/mL: MIC (Neisseria gonorrhoeae; NCTC13477, NCTC 13477)
0.06 µg/mL: MIC (Neisseria gonorrhoeae; CCUG57602, CCUG 57602)
